The values that follow come from paper PMC5918145, “Quantification of amino acids and peptides in an ionic liquid based aqueous two-phase system by LC–MS analysis” (AMB Express, 2018).

Entries after “also recorded” stand apart in the source; their conditions may differ. Like-named read-outs stand apart in the source and are kept apart here. Marks after values point to notes of the source that are not given here. Where a SMILES comes first, the peptide text is derived from it.

The nature of series [1]: Distribution ratio (logD) in ionic liquid-based aqueous two-phase system (Ammoeng 110/K2HPO4). The following applies: Ammoeng 110 (0.60–0.65 g, filled to 4 g) / K2HPO4-KH2PO4 buffer, vortex 45 s, 5 min phase separation, LC–MS after EZ:faast SPE and derivatization (peptides after 6 M HCl hydrolysis, 20 h, 110 °C), duplicates, numbers only plotted (Fig. 2, Fig. 3).
Details of series [2]: method as in 2 sources, ref Hardy (1985) ||| ref Jakubke and Jeschkeit (1982). The settings on record: isoelectric point of free amino acid, cited from earlier work.
On the set-up of series [3]: method as in Kyte and Dolittle (1982). The following applies: hydropathy scale; ref Kyte and Dolittle (1982); cited from earlier work.

As for `C[C@H](N)C(=O)N[C@@H](C)C(=O)N[C@@H](CC(=O)O)C(=O)N[C@@H](C)C(=O)N[C@@H](C)C(=O)O` [AADAA], the “Distribution in IL-ATPS (logD, D = c upper phase / c lower phase), in words” value in series [1] (pH 6.0) and in series [1] (pH 7.0) was “concentrated in the ionic liquid-containing upper phase” each time.
Turning to `C[C@H](N)C(=O)N[C@@H](C)C(=O)N[C@@H](Cc1ccccc1)C(=O)N[C@@H](C)C(=O)N[C@@H](C)C(=O)O` [AAFAA] (H-AAFAA-OH), the “Distribution in IL-ATPS (logD, D = c upper phase / c lower phase), in words” value in series [1] (pH 6.0) and in series [1] (pH 7.0) was “concentrated in the ionic liquid-containing upper phase” each time.
For `C[C@H](N)C(=O)N[C@@H](C)C(=O)NCC(=O)N[C@@H](C)C(=O)N[C@@H](C)C(=O)O` [AAGAA] (H-AAGAA-OH), the “Distribution in IL-ATPS (logD, D = c upper phase / c lower phase), in words” value in series [1] (pH 6.0) was “almost equally distributed between the two phases”; in series [1] (pH 7.0), “almost equally distributed between the two phases; also recorded: slightly more concentrated in the ionic liquid rich upper phase”.
Turning to `C[C@H](N)C(=O)N[C@@H](C)C(=O)N[C@@H](Cc1c[nH]cn1)C(=O)N[C@@H](C)C(=O)N[C@@H](C)C(=O)O` [AAHAA], the “Distribution in IL-ATPS (logD, D = c upper phase / c lower phase), in words” value is reported as “enriched in the upper phase” in series [1] (pH 6.0) and “accumulation of AAHAA in the upper phase was also detected, but not as strong as at pH 6.0” in series [1] (pH 7.0).
On to `CC(C)C[C@H](NC(=O)[C@H](C)NC(=O)[C@H](C)N)C(=O)N[C@@H](C)C(=O)N[C@@H](C)C(=O)O` [AALAA] (H-AALAA-OH), for which the “Distribution in IL-ATPS (logD, D = c upper phase / c lower phase), in words” value in series [1] (pH 6.0) is given as “almost equally distributed between the two phases”; in series [1] (pH 7.0), “almost equally distributed between the two phases; also recorded: slightly more concentrated in the ionic liquid rich upper phase”.
In the same order, the values of `C[C@H](N)C(=O)N[C@@H](C)C(=O)N[C@@H](CO)C(=O)N[C@@H](C)C(=O)N[C@@H](C)C(=O)O` [AASAA] (H-AASAA-OH) are “concentrated in the ionic liquid-containing upper phase” and “concentrated in the ionic liquid-containing upper phase”.
Take `N[C@@H](CCC(=O)O)C(=O)O` [Glutamic acid]: the pI in series [2] (ref Hardy (1985)) is listed as 3.24^a. Besides, the “Distribution in IL-ATPS (logD, D = c upper phase / c lower phase), in words” value in series [1] (pH 6.0) and in series [1] (pH 7.0) was “strongly enriched in the ionic liquids-containing upper phase” each time.
Consider `NCC(=O)O` [Glycine], for which the pI in series [2] (ref Hardy (1985)) is reported as 5.97^a. Further, the “Distribution in IL-ATPS (logD, D = c upper phase / c lower phase), in words” value in series [1] (pH 6.0) is “distributed equally between the ionic liquid-rich upper and the phosphate-rich lower phase”; in series [1] (pH 7.0) it was “distributed more into the ionic liquid-rich upper phase”.
`N[C@@H](Cc1c[nH]cn1)C(=O)O` [Histidine]: the pI in series [2] (ref Hardy (1985)) was 7.59^a. Also, the “Distribution in IL-ATPS (logD, D = c upper phase / c lower phase), in words” value in series [1] (pH 6.0) and in series [1] (pH 7.0) was “strongly enriched in the ionic liquids-containing upper phase” in each case.
As to `CC(C)C[C@H](N)C(=O)O` [Leucine], the “Distribution in IL-ATPS (logD, D = c upper phase / c lower phase), in words” value was “distributed equally between the ionic liquid-rich upper and the phosphate-rich lower phase” in series [1] (pH 6.0); “marginally higher concentrated in the phosphate buffer-rich lower phase” in series [1] (pH 7.0).
Take `N[C@@H](Cc1ccccc1)C(=O)O` [Phenylalanine]: in series [2] (ref Jakubke and Jeschkeit (1982)), the pI is listed as 5.48^b. For the same molecule, the “Distribution in IL-ATPS (logD, D = c upper phase / c lower phase), in words” value in series [1] (pH 6.0) and in series [1] (pH 7.0) was “strongly enriched in the ionic liquids-containing upper phase” throughout. Also, in series [3], the “Hydrophobicity of the side chain” value is 2.8^c.
Consider `N[C@@H](CO)C(=O)O` [Serine], for which, in series [2] (ref Hardy (1985)), the pI is 5.68^a. Besides, the “Distribution in IL-ATPS (logD, D = c upper phase / c lower phase), in words” value in series [1] (pH 6.0) was “distributed equally between the ionic liquid-rich upper and the phosphate-rich lower phase”; in series [1] (pH 7.0), “distributed more into the ionic liquid-rich upper phase”.
